According to patent US11565094B2, “Delivery devices” (THE METHODIST HOSPITAL SYSTEM, priority 2017, dated 2023):

Experiments:
[1] = parameters: species or system C57Bl6 mice; details: mouse, in vivo
From the text: Utilizing the percutaneous trocar delivery approach, PEEK nano-channel implants loaded with Magnevist were inserted intratumorally into the upper thigh of C57Bl6 mice with induced melanoma. The implants were visualized on T1-weighted images as an area of hypointensity corresponding to the PEEK body and surrounded by a hyperintense halo of contrast agent (FIG. 7B). Implant location could also be identified on T2-weighted images that, in addition, highlighted tumor heterogeneity (FIG. 7A).
An unexpected outcome was the implant's loaded concentration being too high for visualization, as the relaxation time was faster than the scanner could detect. This is further evidenced by the sharp onset of observable enhancement a few mm from the implant's exterior. The narrow band of this observable enhancement, beginning 2-5 mm from the implant's exterior and approximately 1 mm thick, provides evidence of rapid clearance of the contrast agent from the tumor tissue. FIG. 7C serves as an idealized graphical representation of the relationship between the normalized concentration and the visible contrast zone.

[2] = VEGF 0.5 and 5 μg/mL in PLM, subcutaneous device
Description: The encapsulation systems were evaluated in nude mice (Nu/Nu, female, 8-10 week old), after receiving approval by the Institutional Animal Care and Use Committee of Houston Methodist Research Institute. Surface treated and sterilized devices, loaded with platelet-lysate matrix (PLM) enriched with VEGF at two different concentrations (0.5 and 5 μg/mL), were implanted subcutaneously in the mice dorsum (n=12 per group). At 1, 2, and 4 weeks post implantation, 4 mice per group were euthanized and the graft explanted for the histological assessment of vascularization and innervation. The implant and surrounding tissues were harvested and processed for histopathology evaluation of tissue response to the implanted device. CD31 antibody (Abcam, ab28364) and a pan-axonal antibody (Cambridge Bioscience, SMI-312R-100) were used to assess vascularization and innervation, respectively.
In vivo vascularization and innervation of oxygen treated devices after subcutaneous implantation in nude mice was then investigated. […] To stimulate neovascularization and to support the islet viability and function for a period of time after transplantation, devices loaded with biological gels with different VEGF concentrations was used. […] Tissue samples were taken from the side of the device closer to the skin, representing the subcutaneous environment.

Compound	distance from implant's exterior where observable enhancement begins [1]	thickness of band of observable enhancement [1]	number of vessels stained by CD31 versus VEGF concentration [2]
CNC[C@H](O)[C@@H](O)[C@H](O)[C@H](O)CO.CNC[C@H](O)[C@@H](O)[C@H](O)[C@H](O)CO.O=C([O-])CN(CCN(CC(=O)[O-])CC(=O)O)CCN(CC(=O)[O-])CC(=O)O.[Gd+3] [Magnevist]	2-5 mm	approximately 1 mm	–
vascular endothelial growth factor [VEGF]	–	–	positive trend
